{"source": "patent US20190224243A1", "about": "(MUSC Foundation for Research Development, priority 2018, published 2019)", "key": {"[1]": {"tested_on": "animal model for ILD", "settings": "cited from earlier work"}, "[2]": {"tested_on": "Healthy AT MSCs", "test": "ASMA staining (IHC) of Healthy AT MSCs treated with CSD, scrambled CSD and TGFβ", "assay_type": "cell-based, human", "description": "Human MSCs were derived from abdominal fat tissue. SSc ILD and SSc No ILD MSCs are a generous gift from Dr. Del Papa (Milan, Italy). Healthy human MSCs are from Dr. Del Papa and from Lonza. Human MSCs were maintained in the medium previously described (Capelli C. et al., 2017, Cell Transplant. 26:841-854). Early passage cells (passage 1 to 3) were used in all experiments except when late passage cells (passage 5) were specifically used in FIG. 1F.\nTo induce fibrogenic differentiation in healthy human and mouse MSCs, cells were incubated for 10 days in Maintenance Medium supplemented with TGFβ (10 ng/ml). To determine the effects of knocking down caveolin-1 expression, healthy MSCs were treated with siRNA targeting caveolin-1 according to the manufacturer's instructions (Dharmacon)."}, "[3]": {"tested_on": "SSc AT MSCs", "test": "adipocyte induction of SSc AT MSCs ± CSD or scrambled peptide (IHC for ASMA and FABP4)", "assay_type": "cell-based, human", "settings": "treatment during adipocyte induction", "method": "MSCs from healthy and SSc donors were treated with adipocyte induction medium (AIM), from Lonza to induce adipogenesis.\n(§1) Adipogenic differentiation was induced by incubating cells for 3 cycles of 3 days in Adipocyte Induction Medium (Lonza) plus 1 day in Maintenance Medium. Adipogenic differentiation was analyzed by IHC and/or Western blotting using appropriate antibodies and by staining with an Oil Red 0 kit (Biovision) according to the manufacturer's instructions."}, "[4]": {"tested_on": "Healthy AT MSCs differentiated into adipocytes", "test": "Healthy AT MSCs already differentiated into adipocytes, then treated ± TGFβ ± CSD, Western blotting", "assay_type": "cell-based, human", "method": "To induce MSCs or adipocytes into a profibrotic phenotype, the cells were cultured in the presence of TGFβ.\nas §1\nMSC cultures were rinsed with PBS. Lysis Buffer (20 mM Tris-HCl (pH 7.5)/1% NP-40/100 mM NaCl/5 mM EDTA/2 mM KCl) supplemented with 1 mM phenylmethylsulfonyl fluoride, protease inhibitor mixture Set V (Calbiochem), and phosphatase inhibitors (10 mM sodium pyrophosphate, 5 mM NaF, 10 mM beta-glycerophosphate, and 10 mM sodium orthovanadate) was added to the plates, the cells scraped into the buffer, frozen, thawed, and the extract clarified by centrifugation (10 min, 12,000 rpm, RT). The protein content of the supernatants was determined, sample buffer added, and the samples were boiled. 5 to 40 μg of protein was loaded per lane depending on the avidity of the primary antibody to be used for detection."}, "[5]": {"tested_on": "bleomycin-treated mice", "test": "bleomycin minipump mouse model, skin fibrosis (dermal thickness, FABP4 IHC)", "assay_type": "in vivo, C57BL/6 mice", "description": "(§2) To create a mouse model for autologous MSC treatment, adipose-derived MSCs were isolated from C57/BL6 mice treated with bleomycin, expanded in vitro, then injected systemically via the retro-orbital sinus or subcutaneously into host C57/BL6 mice that had been treated with bleomycin.\nThe Pump Model (Lee R. et al., 2014, Am. J. Physio. Lung Cell. Mol. Physio. 306:L736-748) is used both to generate MSC donors and host mice receiving MSC therapy. Briefly; under isoflurane anesthesia, mini-osmotic pumps (ALZET 1007D; DURECT Corporation, Cupertino, Calif.) containing 100 μl of bleomycin (67 U/kg) or saline are implanted posterior to the scapulae of 8-10 week old C57BL/6 mice. […]\nOn day 24, under anesthesia the rib cage was opened, mice systemically perfused via the left ventricle with PBS, then further perfused with Z-Fix (Anatech). […] Lung tissue morphology was evaluated by the Ashcroft Method (Ashcroft T. et al., 1988, J. Clin. Pathol. 41:467-470). Skin tissue morphology was evaluated in terms of the thickness of the dermis and the subdermal adipose layer. Tissue sections were also analyzed by IHC using routine methods (Lee R. et al., 2014, Am. J. Physio. Lung Cell. Mol. Physio. 306:L736-748; Lee R. et al., 2014, Frontiers in Pharma. 5:140; Lee R. et al., 2015, Fibrogen. Tissue Repair, 8:11) and appropriate antibodies."}, "[6]": {"tested_on": "bleomycin-treated mice", "test": "bleomycin minipump mouse model, lung fibrosis (Ashcroft score, ASMA and HSP47 IHC)", "assay_type": "in vivo, C57BL/6 mice", "description": "as §2\nThe Pump Model (Lee R. et al., 2014, Am. J. Physio. Lung Cell. Mol. Physio. 306:L736-748) is used both to generate MSC donors and host mice receiving MSC therapy. Briefly; under isoflurane anesthesia, mini-osmotic pumps (ALZET 1007D; DURECT Corporation, Cupertino, Calif.) containing 100 μl of bleomycin (67 U/kg) or saline are implanted posterior to the scapulae of 8-10 week old C57BL/6 mice. Pumps deliver 0.5 μl/h for 7 days, then are removed by day 10 per the manufacturer's instructions.\nMice were treated with bleomycin or vehicle using osmotic minipumps (Lee et al., 2014, Am J Physiol Lung Cell Mol Physiol, 306:L736-L748). […] Tissue morphology was quantified by the Ashcroft Method (Ashcroft et al., 1988, J Clin Pathol, 41:467-70). […]\nOn day 24, under anesthesia the rib cage was opened, mice systemically perfused via the left ventricle with PBS, then further perfused with Z-Fix (Anatech). […] Lung tissue morphology was evaluated by the Ashcroft Method (Ashcroft T. et al., 1988, J. Clin. Pathol. 41:467-470). Skin tissue morphology was evaluated in terms of the thickness of the dermis and the subdermal adipose layer. […]"}, "[7]": {"tested_on": "TGFβ-activated monocytes", "test": "monocyte migration toward SDF-1", "assay_type": "cell-based, human", "method": "Migration experiments were performed using TGFβ-activated monocytes and 100 ng/ml of the chemokine SDF-1 as chemoattractant (Tourkina et al., 2011, Fibrogenesis Tissue Repair, 4:15). Cells were treated with the indicated concentrations of the indicated peptides. Cells that had migrated were counted in six high power fields per filter. Migration is expressed in terms of “Inhibition of Migration”. Each experiment included Control monocytes and the same monocytes treated with TGFβ which enhanced their rate of migration approximately three-fold. […] Intermediate degrees of inhibition were quantified on a linear basis.\nTo study the structure-activity relationship of CSD to identify an optimal version to be developed for treating fibrotic diseases in human patients, subdomains of CSD were tested for their ability to inhibit the migration of human monocytes. Monocytes from healthy subjects were used which, when activated using TGFβ, migrate at an enhanced rate similar to monocytes from SSc patients (Tourkina et al., 2011, Fibrogenesis Tissue Repair, 4:15)."}, "[8]": {"tested_on": "mice", "settings": "mice receiving CSD treatment; cited from earlier work"}, "[9]": {"settings": "TGFβ after adipocyte differentiation"}}, "note": "Ends that are not written are not given here.", "data": [{"compound": "Cc1ccc(=O)n(-c2ccccc2)c1", "note": "[pirfenidone, reference compound]", "values": [{"measurement": "dose working in inhibiting fibrosis", "setting": "[1]", "result": 300, "unit": "mg/kg/day"}]}, {"compound": "DGIWKASFTTFTVTKYWFYR-NH2 [CSD, caveolin-1 scaffolding domain peptide, amino acids 82-101 of caveolin-1]", "values": [{"measurement": "enhanced ASMA expression in cells treated with TGFβ", "setting": "[2]; healthy MSCs + TGFβ", "result": "inhibited"}, {"measurement": "baseline expression of ASMA", "setting": "[2]; healthy MSCs without TGFβ", "result": "inhibited"}, {"measurement": "number of ASMA+ cells", "setting": "[3]", "result": "decreased"}, {"measurement": "number of FABP4+ cells", "setting": "[3]", "result": "increased"}, {"measurement": "AKT activation", "setting": "[4]; [9]", "result": "restored"}, {"measurement": "FABP4 expression", "setting": "[4]; [9]", "result": "did not restore"}, {"measurement": "fibrogenic effect of TGFβ: increased ASMA expression", "setting": "[4]; [9]", "result": "reversed"}, {"measurement": "fibrogenic effect of TGFβ: increased Col I expression", "setting": "[4]; [9]", "result": "reversed"}, {"measurement": "p38 activation", "setting": "[4]; [9]", "result": "inhibited"}, {"measurement": "PPARγ expression", "setting": "[4]; differentiated adipocytes", "result": "Neither TGFβ nor CSD affected"}, {"measurement": "caveolin-1 expression", "setting": "[4]; differentiated adipocytes", "result": "Neither TGFβ nor CSD affected"}, {"measurement": "loss of the intradermal adipose layer (FABP4 staining)", "setting": "[5]", "result": "reversed"}, {"measurement": "ASMA levels in the bleomycin-treated lung", "setting": "[6]", "result": "greatly decreased"}, {"measurement": "TGFβ-induced migration", "setting": "[7]; 50 pg/ml peptide", "result": "decreased essentially to the uninduced level"}, {"measurement": "inhibition of TGFβ-induced migration", "setting": "[7]; levels as low as 0.005 pg/ml", "result": "Substantial inhibition"}, {"measurement": "dose working in inhibiting fibrosis", "setting": "[1]", "result": 1, "unit": "mg/kg/day"}, {"measurement": "effectiveness relative to pirfenidone in inhibiting fibrosis", "setting": "[1]", "result": 300, "unit": "fold"}, {"measurement": "share of treated mice with beneficial effect on lung morphology", "setting": "[8]", "result": "greater than 50%"}]}]}
